Test results taken from BindingDB's records for doi:10.1007/s00044-004-0120-9 (n/a, 2004).

Target: T1, Alpha-1A adrenergic receptor (Homo sapiens, UniProt P35348)
T1 sequence (P35348 whole entry): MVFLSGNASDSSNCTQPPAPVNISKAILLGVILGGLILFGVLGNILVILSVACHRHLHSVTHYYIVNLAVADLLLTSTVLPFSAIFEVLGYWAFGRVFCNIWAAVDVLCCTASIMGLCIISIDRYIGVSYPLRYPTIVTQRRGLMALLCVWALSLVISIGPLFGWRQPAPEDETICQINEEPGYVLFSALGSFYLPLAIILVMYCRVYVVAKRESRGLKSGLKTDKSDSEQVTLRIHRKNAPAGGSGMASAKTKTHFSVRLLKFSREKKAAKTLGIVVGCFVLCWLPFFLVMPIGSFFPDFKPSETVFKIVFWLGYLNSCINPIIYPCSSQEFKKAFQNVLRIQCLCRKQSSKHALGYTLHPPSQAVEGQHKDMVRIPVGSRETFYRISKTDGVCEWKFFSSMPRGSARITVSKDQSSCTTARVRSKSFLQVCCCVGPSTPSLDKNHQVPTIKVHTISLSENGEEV
Test: Binding affinity to Homo sapiens (human) alpha1A adrenergic receptor

`CCC1=C(C(N)=O)C(c2ccc([N+](=O)[O-])cc2)C(C(=O)NCCCN2CCC(c3ccccc3)(c3ccccc3)CC2)=C(CC)N1` (stereo unspecified) was tested, and the Ki was 1.1 nM.
